Measurements as given in patent US20210161837A1, “METHODS FOR TREATING CANCER WITH RORGAMMA INHIBITORS” (The Regents of the University of California, priority 2016, published 2021).

Tests used:
AR and AR-V7 expression = assay: Immunoblotting and qRT-PCR of AR and AR-V7 expression in C4-2B and VCaP cells; format: cell-based, human
Procedure: Data shown are mean±s.d. Significance was calculated using Student's t-test. *p<0.05, **p<0.01.
(§1) Total RNA was isolated from cells in 6-well or 10-cm plates or from xenograft tumors, and the cDNA was prepared, amplified and measured in the presence of SYBR as described in Yang, P., et al., Molecular and cellular biology 32, 3121-3131 (2012). Briefly, the fluorescent values were collected and a melting curve analysis was performed. Fold difference was calculated as described previously Yang, P., et al. (see, id). The experiments were performed at least three times with data presented as mean values±s.d. Cell lysates were analyzed by immunoblotting with antibodies specifically recognizing RORγ, AR, AR-V7 and the indicated proteins.

[1] = tested on: key proliferation and survival proteins, including Myc; assay: Immunoblotting of key proliferation and survival proteins; format: cell-based, human; conditions: 3 days
Procedure: (§2) Data shown are mean percentage of apoptotic cells±s.d. […] Data shown are mean±s.d. Significance was calculated using Student's t-test. *p<0.05, **p<0.01.
(§3) (a&b) C4-2B and 22Rv1 cell proliferation after the RORγ antagonist treatment. Cells were seeded in 6-well plates and counted after cells were treated with indicated concentrations of RORγ antagonists for 0, 2, 4 and 6 days by Coulter counter. […] (e) representative images of TUNEL positive cells treated with vehicle or the antagonist (5 μM) in 22Rv1 cells are shown. […] Three days later, cells were harvested for immunoblotting with indicated antibodies.
as §1

CRPC cells = assay: Growth inhibition of CRPC cells compared with enzalutamide; format: cell-based, human
Procedure: as §2, §3
LNCaP, C4-2B, 22Rv, PC-3, and PC346C prostate cancer cells were cultured in RPMI1640, VCaP, HEK293T and human fibroblast IMR90 cells were in DMEM, LAPC-4 was in Iscove's MEM (all from Corning), and RWPE-1 and PZ-HPV-7 were in Keratinocyte Serum Free Medium (K-SFM) (Invitrogen) with the supplements. All the culture media except for RWPE-1 and PZ-HPV-7 were supplemented with 10% FBS (Hyclone) except indicated otherwise. For experiments, C4-2B cells were cultured in RPMI supplemented with 9% cds-FBS plus 1% regular FBS (to mimic the CRPC condition) unless indicated otherwise and 22Rv1 cells were cultured in RPMI supplemented with 10% cds-FBS. Cells were grown at 37° C. in 5% CO2 incubators. LNCaP, VCaP, 22Rv1, PC-3, 293T, IMR90, PZ-HPV-7 and RWPE-1 were from ATCC. […]

RORγ = target: T1, RORγ (Homo sapiens, UniProt P51449); assay: RORγ transcriptional activity, reporter gene assay in 293T cells with Gal4-RORγ LBD expression vectors; format: cell-based; conditions: read-out: EC50, inhibition of RORγ constitutive activity
T1 construct: reporter gene assay in 293T cells with Gal4-RORγ LBD expression vectors; expressed in transfected cells; host or cells: 293T cells
Procedure: The 2-([1,1′-biphenyl]-4-yl)-1,1,1,3,3,3-hexafluoropropan-2-ol group of SR2211 was kept, while the amide group of the GSK agonist was chosen as linker. FIG. 2B illustrates RORγ transcriptional activity measured by reporter gene assay in 293T cells with Gal4-RORγ LBD expression vectors. EC50 values are reported as means±s.d. for ≥8 separate titrations from 10 μM. In vitro binding to the ligand binding domain (LBD) was measured by AlphaScreen and by thermal shift assay (TSA).
For example, the phenyl group in the middle likely forms a π-π interaction with the side chain of Phe378 of the LBD, while the amide group can form a direct hydrogen bond with Phe377. The nitro group and hydroxyl group at the two ends may form hydrogen bonds with Glu379 and His479, respectively.

[2] = tested on: endogenous AR expression in RWPE1 and PZ-HPV7 cells; assay: Immunoblotting of AR expression in non-malignant prostate epithelial cells; format: cell-based, human
Procedure: Immunoblotting analysis of RORγ and AR expression in non-malignant, human prostate epithelial RWPE1 and PZ-HPV7 cells within indicated treatments is shown.
as §1

[3] = tested on: lung cancer cells (A427, Calu1, A549, H23, H358, H1666, HCC827, PC-9, H69, H209); assay: Cell viability (CellTiter-GLO), 4 days, lung cancer cells; format: cell-based; conditions: Homo sapiens, 96 h, NSCLC and SCLC lung cancer cells
Text: All those cells are derived from human tumors of non-small cell lung carcinoma (NSCLC).

MCF-7-C6 = assay: Growth and survival of radiation-resistant breast cancer cells; format: cell-based, human; conditions: radiation-resistant MCF-7-C6
AR expression = assay: Immunoblotting of AR expression in 22Rv1, LAPC4 and PC346C cells; format: cell-based, human; conditions: 22Rv1, LAPC4, PC346C cells, 72 hours
Procedure: as §1

[4] = tested on: gastric cancer KATO III cells; assay: Cell viability (Cell-Titer GLO), 4 days, gastric cancer cells; format: cell-based, human
Procedure: Experiments were independently performed three times.
(§4) For cell viability, cells were seeded in 96-well plates at 1500-2500 cells per well (optimum density for growth, depending on the specific cell line) in a total volume of 100 μl media. Serially diluted compounds in 100 μl of media were added to the cells 12 hours later. After 4 days of incubation, Cell-Titer GLO reagents (Promega) were added and luminescence was measured on GLOMAX microplate luminometer (Promega), according to the manufacturer's instructions. All experimental points were set up as sextuplicate as biological replication and the entire experiments were repeated three times. The data are presented as percentage of viable cells with vehicle treated cells set as 100.

[5] = tested on: prostate cancer C4-2B cells; assay: Cell viability (Cell-Titer GLO), 4 days, prostate cancer cells; format: cell-based, human
Procedure: The “No.” label for each compound corresponds to the “Structure No.” in Table 2 (e.g., “No. 36”=“Structure No. 36” in Table 2). Experiments were independently performed three times.
as §4, with “100. The estimated in vitro IC50 values were calculated using GraphPad Prism 6 software.” for “100.”

T1 sequence (P51449 269-508 limits assumed): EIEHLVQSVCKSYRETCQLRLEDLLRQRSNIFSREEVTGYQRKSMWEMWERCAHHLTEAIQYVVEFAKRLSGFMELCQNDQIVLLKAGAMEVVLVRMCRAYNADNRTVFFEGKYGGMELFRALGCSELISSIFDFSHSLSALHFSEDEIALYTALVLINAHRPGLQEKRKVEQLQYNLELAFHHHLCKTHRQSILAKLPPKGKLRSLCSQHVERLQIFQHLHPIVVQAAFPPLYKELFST

## O=C(Cc1ccccc1[N+](=O)[O-])Nc1ccc(-c2ccc(C(O)(C(F)(F)F)C(F)(F)F)cc2F)cc1 [XY018, N-(2′-fluoro-4′-(1,1,1,3,3,3-hexafluoro-2-hydroxypropan-2-yl)-[1,1′-biphenyl]-4-yl)-2-(2-nitrophenyl)acetamide]
AR and AR-V7 expression
  AR and AR-V7 expression: inhibited by XY018 in dose-dependent manner
[1]
  expression of key proliferation and survival proteins, including Myc: strongly inhibited the expression
CRPC cells
  growth inhibition, potency relative to enzalutamide: strong growth inhibition with much higher potencies than that of enzalutamide
RORγ
  EC50: 0.19 µM
[2]
  effect on endogenous AR expression in non-malignant cells: did not have any significant effect
[3]
  IC50: 3.3 to 9 µM
MCF-7-C6
  inhibition of growth and survival: potently inhibiting the growth and survival
AR expression
  AR expression: potent does dependent XY018 inhibition of AR expression
[4]
  inhibition of growth and survival: strongly inhibited the growth and survival
[5]
  inhibition of growth and survival: strongly inhibited the growth and survival
